Assay results reported in patent US20080227655A1, “Assessment of effect of an agent on a human biological condition using rodent gene expression panels” (priority 2006, published 2008).
“And” between values parts separate entries of the source, which are not always exact repeats. Equal values may be shown once.

System: custom murine 40-gene Precision Profile for Rheumatoid Arthritis, whole blood
Assay: KRN (K/BxN) serum transfer induced arthritis model, whole blood gene expression by QPCR, vehicle or dexamethasone treatment
Assay type: in vivo, female BALB/c mice
Conditions: for ABCA1_M Normalized CT Value (Delta CT) / APAF1_M Normalized CT Value (Delta CT) / ARG2_M Normalized CT Value (Delta CT) / CASP1_M Normalized CT Value (Delta CT) / CASP3_M Normalized CT Value (Delta CT) / CCR3_M Normalized CT Value (Delta CT) / CD3Z_M Normalized CT Value (Delta CT) / CD8A_M Normalized CT Value (Delta CT) / CD14_M Normalized CT Value (Delta CT) / CD19_M Normalized CT Value (Delta CT) / CD86_M Normalized CT Value (Delta CT) / CSPG2_M Normalized CT Value (Delta CT) / F3_M Normalized CT Value (Delta CT) / HMOX1_M Normalized CT Value (Delta CT) / HSPA1A—M Normalized CT Value (Delta CT) / ICAM1—M Normalized CT Value (Delta CT) / IFI16—M Normalized CT Value (Delta CT) / IL1B_M Normalized CT Value (Delta CT) / IL10_M Normalized CT Value (Delta CT): whole blood
Procedure: Whole blood gene expression changes were evaluated in vehicle control and drug-treated murine subjects across two murine models of arthritis according to the following arthritis models:
KRN Transgenic Mouse (K/B×N): K/B×N serum from transgenic mouse used to induce arthritis in female BALB/c mice (n=54). Collagen Induced Arthritis (CIA): Bovine type II collagen used to induce arthritis in male DBA/1 mice (n=54).
In addition, naïve, untreated animal groups at baseline and terminal day were included to control for potential age-related changes in gene expression over the extended study periods. Animal groups, time-points, and treatment schedules are summarized in Tables 20A and 20B, respectively.
Whole blood samples from animals were collected by retro-orbital bleed at selected time-points in accordance with the arthritis study schemas described in […], and transferred into sample collection tubes containing a 1.5× lysis solution and RPMI. Samples were processed into total RNA and cDNA. […] It was anticipated from these murine models would provide a better understanding of the relevant molecular response of arthritis induction and their potential correlation to the human disease condition.
Normal murine subject reference values (represented as normalized Ct or ΔCt values) were established for male DBA/1 mice (n=6 for the CIA study arm) and female BALB/c mice (n=6 for the KRN study arm). In both arms of the study, gene expression response of normal (naïve, non-immunized and untreated) murine subjects were evaluated in groups of 6 each at day 0 and day 60 for the CIA study arm, and at day 0 and day 21 for the KRN study arm (see Tables 20A and 20B).
Gene expression responses for the arthritis-induced murine model were evaluated for untreated mice at day 3 and vehicle-treated mice at days 7, 14 and 21 to characterize disease progression.

[1] = KRN Day 14, Dex-treated, individual murine subject
[2] = KRN Day 14, Dex-treated, individual murine subject, listed as Dex
[3] = KRN Day 14 Dex, individual mouse, listed as Dex
[4] = KRN Day 21, Dex-treated, group Average
[5] = KRN Day 21, Dex-treated, individual murine subject, listed as Dex
[6] = KRN Day 21 Dex, individual mouse, listed as Dex

C[C@@H]1C[C@H]2[C@@H]3CCC4=CC(=O)C=C[C@]4(C)[C@@]3(F)[C@@H](O)C[C@]2(C)[C@@]1(O)C(=O)CO [Dexamethasone]
Normalized CT Value (Delta CT) TLR4_M [1]: 18.49 | Normalized CT Value (Delta CT) TNFSF5—M [1]: 19.61 | Normalized CT Value (Delta CT) TNF_M [1]: 20.58 | Normalized CT Value (Delta CT) VEGF_M [1]: 20.76 | Normalized CT Value (Delta CT) IL1RAP_M [2]: 18.49 and 19.00 and 18.48 and 18.13 and 18.59 and 18.81 | Normalized CT Value (Delta CT) IL1RN—M [2]: 17.70 and 17.88 and 17.80 and 17.59 and 17.72 and 17.52 | Normalized CT Value (Delta CT) IL6_M [2]: 25.39 and 25.69 and 25.54 and 25.34 and 25.89 and 25.05 | Normalized CT Value (Delta CT) JUN_M [2]: 19.76 and 19.88 and 19.77 and 19.35 and 19.58 and 19.68 | Normalized CT Value (Delta CT) MEF2C—M [2]: 20.59 and 19.97 and 20.74 and 19.83 and 20.88 and 19.95 | Normalized CT Value (Delta CT) MMP9—M [2]: 14.51 and 14.33 and 14.28 and 14.07 and 14.70 and 14.83 | Normalized CT Value (Delta CT) NFKB1—M [2]: 17.37 (2×) and 17.12 and 17.30 and 16.77 and 17.79 | Normalized CT Value (Delta CT) PADI4—M [2]: 18.74 and 18.78 and 18.81 and 18.39 and 18.98 and 19.03 | Normalized CT Value (Delta CT) PLA2G7—M [2]: 15.31 and 15.29 and 15.04 and 14.93 and 15.33 and 15.36 | ABCA1_M Normalized CT Value (Delta CT) (KRN Day 14 Dex, group Average): 18.74 | APAF1_M Normalized CT Value (Delta CT) (KRN Day 14 Dex, group Average): 19.47 | ARG2_M Normalized CT Value (Delta CT) (KRN Day 14 Dex, group Average): 17.37 | CASP1_M Normalized CT Value (Delta CT) (KRN Day 14 Dex, group Average): 19.02 | CASP3_M Normalized CT Value (Delta CT) (KRN Day 14 Dex, group Average): 17.77 | CCR3_M Normalized CT Value (Delta CT) (KRN Day 14 Dex, group Average): 19.21 | CD3Z_M Normalized CT Value (Delta CT) (KRN Day 14 Dex, group Average): 17.27 | CD8A_M Normalized CT Value (Delta CT) (KRN Day 14 Dex, group Average): 18.32 | CD14_M Normalized CT Value (Delta CT) (KRN Day 14 Dex, group Average): 19.94 | CD19_M Normalized CT Value (Delta CT) (KRN Day 14 Dex, group Average): 17.52 | CD86_M Normalized CT Value (Delta CT) (KRN Day 14 Dex, group Average): 23.30 | CSPG2_M Normalized CT Value (Delta CT) (KRN Day 14 Dex, group Average): 20.94 | F3_M Normalized CT Value (Delta CT) (KRN Day 14 Dex, group Average): 23.16 | HMOX1_M Normalized CT Value (Delta CT) (KRN Day 14 Dex, group Average): 18.18 | HSPA1A—M Normalized CT Value (Delta CT) (KRN Day 14 Dex, group Average): 21.59 | ICAM1—M Normalized CT Value (Delta CT) (KRN Day 14 Dex, group Average): 19.42 | IFI16—M Normalized CT Value (Delta CT) (KRN Day 14 Dex, group Average): 17.45 | IL1B_M Normalized CT Value (Delta CT) (KRN Day 14 Dex, group Average): 14.29 | IL10_M Normalized CT Value (Delta CT) (KRN Day 14 Dex, group Average): 25.56 | ABCA1_M Normalized CT Value (Delta CT) [3]: 18.85 and 18.64 and 18.31 and 18.46 and 19.46 and 18.75 | APAF1_M Normalized CT Value (Delta CT) [3]: 19.78 and 19.62 and 19.16 and 19.37 and 19.43 | ARG2_M Normalized CT Value (Delta CT) [3]: 17.30 and 17.84 and 17.05 and 16.89 and 17.70 and 17.43 | CASP1_M Normalized CT Value (Delta CT) [3]: 19.00 and 18.87 and 18.99 and 19.15 and 19.23 and 18.90 | CASP3_M Normalized CT Value (Delta CT) [3]: 17.98 and 17.63 and 17.87 and 17.16 and 17.93 and 18.06 | CCR3_M Normalized CT Value (Delta CT) [3]: 19.56 and 18.34 and 19.23 and 18.45 and 19.90 and 19.79 | CD3Z_M Normalized CT Value (Delta CT) [3]: 17.27 and 17.38 and 17.23 and 16.92 and 18.16 and 16.68 | CD8A_M Normalized CT Value (Delta CT) [3]: 18.76 and 18.05 and 18.11 and 17.83 and 19.21 and 17.94 | CD14_M Normalized CT Value (Delta CT) [3]: 19.50 and 20.04 and 19.93 and 20.22 and 19.63 and 20.29 | CD19_M Normalized CT Value (Delta CT) [3]: 17.84 and 17.32 (2×) and 18.33 and 17.39 | CD86_M Normalized CT Value (Delta CT) [3]: 23.63 and 23.21 and 23.28 and 22.53 and 23.60 and 23.56 | CSPG2_M Normalized CT Value (Delta CT) [3]: 21.74 and 21.15 and 20.43 and 21.79 and 19.79 and 20.71 | F3_M Normalized CT Value (Delta CT) [3]: 22.18 and 23.66 and 21.85 and 24.55 and 21.66 and 25.05 | HMOX1_M Normalized CT Value (Delta CT) [3]: 17.83 and 18.22 and 17.82 and 18.09 and 18.31 and 18.81 | HSPA1A—M Normalized CT Value (Delta CT) [3]: 21.44 and 22.20 and 21.91 and 21.55 and 20.95 and 21.51 | ICAM1—M Normalized CT Value (Delta CT) [3]: 19.58 and 19.31 and 19.39 and 19.05 and 19.89 and 19.28 | IFI16—M Normalized CT Value (Delta CT) [3]: 17.64 and 17.26 and 17.87 and 16.81 and 18.04 and 17.08 | IL1B_M Normalized CT Value (Delta CT) [3]: 14.31 and 14.48 (2×) and 14.19 and 14.00 and 14.25 | IL10_M Normalized CT Value (Delta CT) [3]: 25.62 and 25.82 and 25.58 and 25.54 and 25.73 and 25.10 | Normalized CT Value (Delta CT) IL1RAP_M [4]: 19.02 | Normalized CT Value (Delta CT) IL1RN—M [4]: 18.13 | Normalized CT Value (Delta CT) IL6_M [4]: 25.28 | Normalized CT Value (Delta CT) JUN_M [4]: 20.06 | Normalized CT Value (Delta CT) MEF2C—M [4]: 20.90 | Normalized CT Value (Delta CT) MMP9—M [4]: 15.04 | Normalized CT Value (Delta CT) NFKB1—M [4]: 17.69 | Normalized CT Value (Delta CT) PADI4—M [4]: 18.92 | Normalized CT Value (Delta CT) PLA2G7—M [4]: 15.50 | Normalized CT Value (Delta CT) IL1RAP_M [5]: 19.08 and 19.03 and 18.86 and 19.29 and 18.97 and 18.89 | Normalized CT Value (Delta CT) IL1RN—M [5]: 17.95 (2×) and 18.43 and 17.84 and 18.46 and 18.15 | Normalized CT Value (Delta CT) IL6_M [5]: 25.40 and 25.42 and 24.75 and 25.06 and 25.35 and 25.72 | Normalized CT Value (Delta CT) JUN_M [5]: 20.06 and 20.45 and 20.53 and 19.72 and 19.52 | Normalized CT Value (Delta CT) MEF2C—M [5]: 21.26 (2×) and 20.26 and 21.57 and 20.41 and 20.64 | Normalized CT Value (Delta CT) MMP9—M [5]: 15.23 and 14.73 and 15.36 and 15.08 and 14.79 | Normalized CT Value (Delta CT) NFKB1—M [5]: 17.74 and 18.12 and 17.25 and 18.27 and 17.28 and 17.46 | Normalized CT Value (Delta CT) PADI4—M [5]: 19.00 and 18.36 and 19.37 and 18.97 and 19.13 and 18.69 | Normalized CT Value (Delta CT) PLA2G7—M [5]: 15.27 and 15.70 and 15.34 and 15.67 and 15.86 and 15.15 | ABCA1_M Normalized CT Value (Delta CT) (KRN Day 21 Dex, group Average): 19.00 | APAF1_M Normalized CT Value (Delta CT) (KRN Day 21 Dex, group Average): 19.85 | ARG2_M Normalized CT Value (Delta CT) (KRN Day 21 Dex, group Average): 17.59 | CASP1_M Normalized CT Value (Delta CT) (KRN Day 21 Dex, group Average): 19.48 | CASP3_M Normalized CT Value (Delta CT) (KRN Day 21 Dex, group Average): 18.35 | CCR3_M Normalized CT Value (Delta CT) (KRN Day 21 Dex, group Average): 19.66 | CD3Z_M Normalized CT Value (Delta CT) (KRN Day 21 Dex, group Average): 17.38 | CD14_M Normalized CT Value (Delta CT) (KRN Day 21 Dex, group Average): 20.44 | CD19_M Normalized CT Value (Delta CT) (KRN Day 21 Dex, group Average): 17.72 | CD86_M Normalized CT Value (Delta CT) (KRN Day 21 Dex, group Average): 23.73 | ABCA1_M Normalized CT Value (Delta CT) [6]: 19.52 and 19.29 and 18.57 and 19.09 and 18.61 and 18.92 | APAF1_M Normalized CT Value (Delta CT) [6]: 19.76 and 19.88 and 19.81 and 20.29 and 19.46 and 19.93 | ARG2_M Normalized CT Value (Delta CT) [6]: 17.45 and 17.78 and 17.56 and 17.29 and 18.09 and 17.36 | CASP1_M Normalized CT Value (Delta CT) [6]: 19.34 and 19.90 and 19.57 and 19.28 and 19.50 and 19.31 | CASP3_M Normalized CT Value (Delta CT) [6]: 18.21 and 18.52 (2×) and 18.24 and 18.02 and 18.60 | CCR3_M Normalized CT Value (Delta CT) [6]: 19.82 and 19.72 and 19.20 and 19.52 and 20.10 and 19.60 | CD3Z_M Normalized CT Value (Delta CT) [6]: 17.32 and 17.40 and 17.14 and 17.66 and 17.04 and 17.71 | CD14_M Normalized CT Value (Delta CT) [6]: 20.25 and 21.24 and 20.59 and 20.09 and 20.44 and 20.03 | CD19_M Normalized CT Value (Delta CT) [6]: 18.44 and 17.98 and 17.64 and 18.11 | CD86_M Normalized CT Value (Delta CT) [6]: 23.89 and 23.61 and 23.63 and 24.02 and 23.14 and 24.11
